From the supplement of paper PMC11061612

Legend:
Experiment in all cases: combination Emax (second highest fraction inhibited in the dose matrix, 72 h); higher = more inhibition; extreme values may be limits of the assay
[1] = test system: CTV-1 (T-Lymphoblastic Leukemia)
Method in brief: (§1)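 After 24 hours at 37°C and 5% CO2 in 1536-well plates, cells in DMEM/F12 or RPMI plus 10% FBS received two-drug dose matrices for 72 hours. Viability came from CellTiter-Glo 2.0 luminescence and was scaled as inhibition, anchored at 0 by vehicle wells and at 1 by blank wells. Combination Emax is taken as the second-highest inhibition in the matrix, and Bliss excess as the observed combination effect less EA + EB − EA·EB, with EA and EB the single-agent effects.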

[2] = test system: COR-L23 (Non-Small Cell Lung Carcinoma)
Method in brief: as §1

[3] = test system: LU-99A (Non-Small Cell Lung Carcinoma)
Method in brief: as §1

[4] = test system: NCI-H1694 (Small Cell Lung Carcinoma)
Method in brief: as §1

RH-1 (Ewing's Sarcoma) = test system: RH-1 (Ewing's Sarcoma)
Method in brief: as §1

J82 (Bladder Carcinoma) = test system: J82 (Bladder Carcinoma)
Method in brief: as §1

[5] = test system: DB (B-Cell Non-Hodgkin's Lymphoma)
Method in brief: as §1

[6] = test system: JiyoyeP-2003 (Burkitt's Lymphoma)
Method in brief: as §1

[7] = test system: DMS-273 (Small Cell Lung Carcinoma)
Method in brief: as §1

[8] = test system: 697 (B-Lymphoblastic Leukemia)
Method in brief: as §1

[9] = test system: NCI-H1793 (Lung Adenocarcinoma)
Method in brief: as §1

[10] = test system: NCI-H1781 (Lung Adenocarcinoma)
Method in brief: as §1

[11] = test system: KATOIII (Gastric Carcinoma)
Method in brief: as §1

ES7 (Ewing's Sarcoma) = test system: ES7 (Ewing's Sarcoma)
Method in brief: as §1

[12] = test system: HT-29 (Colorectal Carcinoma)
Method in brief: as §1

[13] = test system: EM-2 (Chronic Myelogenous Leukemia)
Method in brief: as §1

[14] = test system: SW1783 (Low Grade Glioma)
Method in brief: as §1

[15] = test system: TE-5 (Esophageal Squamous Cell Carcinoma)
Method in brief: as §1

[16] = test system: G-292-Clone-A141B1 (Osteosarcoma)
Method in brief: as §1

[17] = test system: C3A (Hepatocellular Carcinoma)
Method in brief: as §1

| SMILES | combination Emax [1] | combination Emax [2] | combination Emax [3] | combination Emax [4] | combination Emax (RH-1 (Ewing's Sarcoma)) | combination Emax (J82 (Bladder Carcinoma)) | combination Emax [5] | combination Emax [6] | combination Emax [7] | combination Emax [8] | combination Emax [9] | combination Emax [10] | combination Emax [11] | combination Emax (ES7 (Ewing's Sarcoma)) | combination Emax [12] | combination Emax [13] | combination Emax [14] | combination Emax [15] | combination Emax [16] | combination Emax [17] |
| --- | --- | --- | --- | --- | --- | --- | --- | --- | --- | --- | --- | --- | --- | --- | --- | --- | --- | --- | --- | --- |
| CCc1c2c(nc3ccc(O)cc13)-c1cc3c(c(=O)n1C2)COC(=O)[C@]3(O)CC [SN-38] + CN(C)CCCOc1ccc(-c2ccc3ncc4c(c3c2)n(C2CCOCC2)c(=O)n4C)cn1 [AZD0156] (first compound max 0.3 µM, 7x7, partner max 1 µM) | 1 | 0.686 | 0.769 | 0.968 | 1 | 0.784 | 0.97 | 0.975 | 0.802 | 1 | 0.505 | 0.99 | 0.16 | 1 | 0.89 | 0.985 | 0.748 | 0.796 | 0.213 | 0.557 |
| C[C@@H](c1ccc2nccn2c1)n1nnc2ncc(-c3cnn(C)c3)nc21 [Savolitinib] + CC1(C)CCC(CN2CCN(c3ccc(C(=O)NS(=O)(=O)c4ccc(NCC5CCOCC5)c([N+](=O)[O-])c4)c(Oc4cnc5[nH]ccc5c4)c3)CC2)=C(c2ccc(Cl)cc2)C1 [Venetoclax] (first compound max 1 µM, 7x7, partner max 1 µM) | 0.091 | 0.111 | 0.0525 | 0.102 | 0.0824 | 0.145 | 0.741 | 0.162 | 0.239 | 1 | 0.193 | 0.208 | 0.337 | 0.177 | 0.149 | 0.132 | 0.156 | 0.123 | 0.0932 | 0.148 |
| C[C@@H](c1ccc2nccn2c1)n1nnc2ncc(-c3cnn(C)c3)nc21 [Savolitinib] + Cc1c2c(nn1C)CSCc1cc(n(C)n1)CSc1cc(c3ccccc3c1)OCCCc1c(C(=O)O)n(C)c3c-2c(Cl)ccc13 [AZD5991] (first compound max 1 µM, 7x7, partner max 1 µM) | 0.113 | 0.142 | 0.134 | 0.371 | 0.518 | 0.205 | 0.986 | 0.166 | 0.933 | 1 | 0.173 | 0.32 | 0.211 | 0.554 | 0.142 | 0.364 | 0.22 | 0.147 | 0.138 | 0.195 |
| Cn1cnc2c(F)c(Nc3ccc(Br)cc3Cl)c(C(=O)NOCCO)cc21 [Selumetinib] + C=CCn1c(=O)c2cnc(Nc3ccc(N4CCN(C)CC4)cc3)nc2n1-c1cccc(C(C)(C)O)n1 [AZD1775] (first compound max 10 µM, partner max 1 µM) | 0.963 | 0.722 | 0.62 | 0.371 | 1 | 0.299 | 0.793 | 0.947 | 0.739 | 1 | 0.423 | 0.485 | 0.451 | 0.486 | 0.889 | 0.92 | 0.392 | 0.292 | 0.102 | 0.777 |
| Cn1cnc2c(F)c(Nc3ccc(Br)cc3Cl)c(C(=O)NOCCO)cc21 [Selumetinib] + CC(C)n1c(=O)n(C)c2cnc3cc(F)c(-c4ccc(OCCCN5CCCCC5)nc4)cc3c21 [AZD1390] (first compound max 10 µM, 7x7, partner max 0.3 µM) | 0.331 | 0.268 | 0.358 | 0.206 | 0.048 | 0.787 | 0.304 | 0.191 | 0.232 | 0.373 | 0.218 | 0.218 | 0.475 | 0.14 | 0.709 | 0.545 | 0.0665 | 0.137 | 0.0339 | 0.412 |
| Cn1cnc2c(F)c(Nc3ccc(Br)cc3Cl)c(C(=O)NOCCO)cc21 [Selumetinib] + CCN(CCO)CCCOc1ccc2c(Nc3cc(CC(=O)Nc4cccc(F)c4)[nH]n3)ncnc2c1 [AZD2811] (first compound max 10 µM, 7x7, partner max 1 µM) | 0.291 | 0.467 | 0.453 | 0.385 | 0.935 | 0.153 | 0.411 | 0.235 | 0.804 | 1 | 0.203 | 0.623 | 0.429 | 0.792 | 0.715 | 0.88 | 0.0665 | 0.186 | 0.102 | 0.494 |
| Cn1cnc2c(F)c(Nc3ccc(Br)cc3Cl)c(C(=O)NOCCO)cc21 [Selumetinib] + C[C@@H]1COCCN1C2=NC(=NC(=C2)C3(CC3)[S@](=N)(=O)C)C4=C5C=CNC5=NC=C4 [AZD6738] (first compound max 10 µM, 7x7, partner max 10 µM) | 0.906 | 0.615 | 0.569 | 0.728 | 0.899 | 0.482 | 0.274 | 0.947 | 0.811 | 1 | 0.524 | 0.396 | 0.415 | 0.777 | 0.862 | 0.954 | 0.362 | 0.464 | 0.141 | 0.759 |
| CC(=O)Nc1cccc(-n2c(=O)n(C3CC3)c(=O)c3c(Nc4ccc(I)cc4F)n(C)c(=O)c(C)c32)c1 [Trametinib] + Cc1nc(-c2cn3c(n2)-c2ccc(-c4cnn(C(C)(C)C(N)=O)c4)cc2OCC3)n(C(C)C)n1 [Taselisib] (first compound max 1 µM, 7x7, partner max 10 µM) | 0.96 | 0.919 | 0.984 | 0.324 | 0.594 | 0.593 | 0.212 | 0.544 | 0.591 | 0.653 | 0.778 | 0.88 | 0.793 | 0.673 | 0.981 | 0.935 | 0.7 | 0.767 | 0.921 | 0.903 |
| CC1(C)CCC(CN2CCN(c3ccc(C(=O)NS(=O)(=O)c4ccc(NCC5CCOCC5)c([N+](=O)[O-])c4)c(Oc4cnc5[nH]ccc5c4)c3)CC2)=C(c2ccc(Cl)cc2)C1 [Venetoclax] + C1CN(CCC1(C(=O)N[C@@H](CCO)C2=CC=C(C=C2)Cl)N)C3=NC=NC4=C3C=CN4 [Capivasertib] (first compound max 1 µM, 7x7, partner max 3 µM) | 0.359 | 0.245 | 0.312 | 0.179 | 0.213 | 0.259 | 0.941 | 0.591 | 0.743 | 0.988 | 0.221 | 0.5 | 0.254 | 0.8 | 0.254 | 0.338 | 0.342 | 0.255 | 0.273 | 0.17 |
| CC1(C)CCC(CN2CCN(c3ccc(C(=O)NS(=O)(=O)c4ccc(NCC5CCOCC5)c([N+](=O)[O-])c4)c(Oc4cnc5[nH]ccc5c4)c3)CC2)=C(c2ccc(Cl)cc2)C1 [Venetoclax] + C=CCn1c(=O)c2cnc(Nc3ccc(N4CCN(C)CC4)cc3)nc2n1-c1cccc(C(C)(C)O)n1 [AZD1775] (first compound max 1 µM, partner max 1 µM) | 0.992 | 0.602 | 0.463 | 0.516 | 1 | 0.177 | 1 | 0.954 | 0.749 | 1 | 0.481 | 0.449 | 0.382 | 0.888 | 0.89 | 0.949 | 0.307 | 0.451 | 0.263 | 0.572 |
| CC1(C)CCC(CN2CCN(c3ccc(C(=O)NS(=O)(=O)c4ccc(NCC5CCOCC5)c([N+](=O)[O-])c4)c(Oc4cnc5[nH]ccc5c4)c3)CC2)=C(c2ccc(Cl)cc2)C1 [Venetoclax] + CCN(CCO)CCCOc1ccc2c(Nc3cc(CC(=O)Nc4cccc(F)c4)[nH]n3)ncnc2c1 [AZD2811] (first compound max 1 µM, 7x7, partner max 1 µM) | 0.184 | 0.172 | 0.299 | 0.485 | 0.951 | 0.177 | 0.965 | 0.382 | 0.806 | 1 | 0.234 | 0.577 | 0.17 | 0.911 | 0.214 | 0.864 | 0.333 | 0.29 | 0.235 | 0.228 |
| CC1(C)CCC(CN2CCN(c3ccc(C(=O)NS(=O)(=O)c4ccc(NCC5CCOCC5)c([N+](=O)[O-])c4)c(Oc4cnc5[nH]ccc5c4)c3)CC2)=C(c2ccc(Cl)cc2)C1 [Venetoclax] + CN(C)CCCOc1ccc(-c2ccc3ncc4c(c3c2)n(C2CCOCC2)c(=O)n4C)cn1 [AZD0156] (first compound max 1 µM, 7x7, partner max 1 µM) | 0.0786 | 0.147 | 0.16 | 0.14 | 0.221 | 0.186 | 0.971 | 0.189 | 0.355 | 0.988 | 0.248 | 0.277 | 0.154 | 0.925 | 0.233 | 0.174 | 0.24 | 0.271 | 0.273 | 0.17 |
